Consider 25 molecules from US20030027819A1, “Beta-sheet mimetics and methods relating to the use thereof” (Molecumetics Ltd., priority 1996, published 2003).

Structures are written as SMILES. Where two headings read alike, the source gives them in different places. A value given as a limit tells only on which side of the number the result lay.

One series concerns the target Factor XI (Homo sapiens, UniProt P03951). Description: Factor XI inhibition assay (Ki, Example 8). The format is biochemical. Here is the method:
(§1) The reaction progress curves were recorded by reading the plates, typically 60 times with 30 second to 2 minute intervals. Initial rates were determined by unweighted nonlinear least-squares fitting to a first order reaction in GraFit (Erithacus Software Limited, London, England).
Factor XI. The same buffer was utilized in this assay as in the thrombin assay. […] From this 100 μM solution, seven serial 1:5 dilutions were made in buffer for assay.

For the next series, the target named is factor VII (Homo sapiens, UniProt P08709). As to the kind of experiment: Factor VII inhibition assay (Ki, Example 5). The format is biochemical. As to the method: as §1
From this concentration point seven more sequential dilutions were made for the assay.

Series [1] has as its target Tissue Plasminogen Activator (t-PA) (Homo sapiens, UniProt P00750). Description: t-PA inhibition assay (Ki, Example 5). The format is biochemical. Here is the method: as §1
A further series concerns the target urokinase (Homo sapiens, UniProt P00749). As to the kind of experiment: Urokinase inhibition assay (Ki, Example 5). The format is biochemical.
For the next series, the target named is Plasmin (Bos taurus, UniProt P06868). Description: Plasmin inhibition assay (Ki, Example 5). The format is biochemical, bovine. Here is the method:
as §1

Another series deals with thioredoxin. Description: Insulin disulfide reduction by thioredoxin (turbidity at 650 nm). The note with it: 8 μM thioredoxin, 0-100 μM compound, 60 minutes.
The next series has as its system control plasma. As to the kind of experiment: Prothrombin time (PT) in control plasma. The format is biochemical. Here is the method:
Then 200 μl of prewarmed (at 37° C. for ˜10 minutes) thromboplastin with calcium (from Sigma) was rapidly added into the plasma sample.

Series [2] is described as follows: Pharmacodynamic and pharmacokinetic study in rats. The format is in vivo, male Sprague Dawley rats. The note with it: rat; for half-life: read-out: terminal halflife (converted). Here is the method:
Specifically, a pharmacodynamic and pharmacokinetic study of structure (20b) was conducted in male Sprague Dawley rats. […] Groups of rats (n ═3 or 4) were sacrificed and exsanguinated at 0.25, 0.5, 1, 2, 4 and 8 hours following dosing. Efficacy parameters, aPTT and TT, were measured for each plasma sample.

The next series has as its target factor X (Bos taurus, UniProt P00743). As to the kind of experiment: Factor X inhibition assay (Ki, Example 5), bovine plasma enzyme. The format is biochemical. The note with it: bovine plasma enzyme (Example 5 protocol). Here is the method:
The hydrolysis of chromogenic substrates was monitored at 405 nm. The reaction progress curves were recorded by reading the plates, typically 60 times with 30 second to 2 minute intervals. Initial rates were determined by unweighted nonlinear least-squares fitting to a first order reaction in GraFit (Erithacus Software Limited, London, England).
Buffer and substrate were the same as used for thrombin assay. A 1:100 dilution was made in the pH8.0 tris buffer to serve as the first point. Seven more dilutions from the first were made for the assay.

A further series deals with T1, trypsin (Bos taurus, UniProt P00760).
T1 sequence (P00760 24-246): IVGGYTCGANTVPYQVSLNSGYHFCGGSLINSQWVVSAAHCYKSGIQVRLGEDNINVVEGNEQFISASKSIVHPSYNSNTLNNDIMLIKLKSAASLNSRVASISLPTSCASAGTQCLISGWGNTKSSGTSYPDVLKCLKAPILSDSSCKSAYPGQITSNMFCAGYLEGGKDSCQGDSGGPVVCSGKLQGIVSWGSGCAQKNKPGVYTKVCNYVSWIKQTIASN
Description: Trypsin inhibition assay (Ki, Example 5). The format is biochemical, bovine. Here is the method:
as §1

Series [3] deals with T2, thrombin (Bos taurus, UniProt P00735). Description: Thrombin inhibition assay (Ki, Example 5). The format is biochemical, bovine. On the set-up: thrombin; bovine plasma; 0.66; from tissue; host or cells: bovine plasma. As to the method: as §1
Seven sequential dilutions were made from the first point for the assay.

Series [4] concerns TNF induced V-CAM expression in human umbilical vein entothelial cells (HUVEC). As to the kind of experiment: Inhibition of TNF induced V-CAM expression in HUVEC. The format is cell-based. Here is the method:
Upon stimulation with inflammatory cytokines, HUVEC express cell surface adhesion molecules, including E-selectin, V-CAM, and I-CAM. Proteasome antagonists inhibit TNFα induced expression of these adhesion molecules, thereby providing a mechanism for regulating leucocyte adhesion and the inflammatory response.
More specifically, compounds (65), (68), (69) and (71) were assayed by the procedures set forth by Deisher, Kaushansky and Harlan (“Inhibitors of Topoisomerase II Prevent Cytokine-Induced Expression of Vascular Cell Adhesion Molecule-1, While Augmenting the Expression of Endothelial Leukocyte Adhesion Molecule-1 on Human Umbilical Vein Endothelial Cells,” Cell Adhesion Commun. 1:133-42, 1993) (incorporated herein by reference), with the exception that tetramethyl benzidine was used in place of o-phenylenediamine-peroxide.

For series [5], the target named is T2, thrombin. Description: Thrombin inhibition by solid phase compounds of Tables 11-15. The format is biochemical. On the set-up: 100 μl of 10 μM thrombin solution. The note with it: mixtures of diastereomers; read-out: Ki as thrombin inhibitors (mark at Cpd. No.). As to the method: Following extensive washing with DMF, the resin was treated with the acid fluoride of N-Fmoc-4-aminomethylbenzoic acid, or (81), or (86) and Hunigs' base in DMF until the Kaiser test was negative. Alternatively, the Fmoc-protected thiazole-(75) or imidazole-based (77) linkers were coupled to the resin using BOP, HOBt and DIEA. In some instances Fmoc-Leu or another amino acid was attached to the resin prior to the thiazole-(75) or imidazole-based (77) linkers via the same methodology. […] Following washing with DMF a dienoic acid was coupled to the resin-bound linkers using PyBOP, HOBt and Hunigs' base in DMF until the result of a Kaiser test was negative. The cycloaddition was performed by pretreatment of a solution of a pyrazolidinedione (not shown) or urazole in DMF with a solution of [bis(trifluoroacetoxy)iodo]benzene in DMF. […] The resin was then washed with DMF and CH2Cl2. Oxidation to the ketoamide was effected by treatment of the resin with a solution of Dess-Martin periodinane in DMSO for 60 min. […] The supernatant was collected and the resin was washed with additional TFA. The combined filtrates were concentrated in vacuo. The residue was precipitated with diethyl ether and the ether was decanted. The resulting solid was reconstituted in 1:1 CH3CN:H2O and lyophilized. […] The compounds were assayed for inhibition of coagulation enzymes as mixtures of diastereomers.

factor VII, sequence (P08709 213-466 limits assumed): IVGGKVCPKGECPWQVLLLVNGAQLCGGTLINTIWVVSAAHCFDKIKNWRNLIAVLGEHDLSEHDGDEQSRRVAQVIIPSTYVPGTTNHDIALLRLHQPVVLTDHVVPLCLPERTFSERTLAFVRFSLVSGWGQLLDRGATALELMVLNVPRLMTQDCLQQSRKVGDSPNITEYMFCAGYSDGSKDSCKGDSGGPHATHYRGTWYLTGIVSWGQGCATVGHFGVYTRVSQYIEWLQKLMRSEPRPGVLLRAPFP
factor VII, sequence (P08709 61-212 limits assumed): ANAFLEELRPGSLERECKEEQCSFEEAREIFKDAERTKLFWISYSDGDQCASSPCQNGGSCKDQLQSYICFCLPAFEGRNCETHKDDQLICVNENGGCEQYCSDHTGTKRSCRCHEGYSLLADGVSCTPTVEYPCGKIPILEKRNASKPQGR
factor VII, sequence (P13726 33-295 partner): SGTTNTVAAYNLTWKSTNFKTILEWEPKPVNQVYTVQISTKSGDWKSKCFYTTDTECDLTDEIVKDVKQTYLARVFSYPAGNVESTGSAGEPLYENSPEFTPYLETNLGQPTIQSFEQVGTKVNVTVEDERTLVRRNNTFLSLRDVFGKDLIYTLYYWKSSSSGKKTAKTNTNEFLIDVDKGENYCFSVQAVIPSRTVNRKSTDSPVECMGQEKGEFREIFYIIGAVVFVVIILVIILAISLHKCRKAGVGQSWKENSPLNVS
Factor XI, sequence (P03951 388-625 limits assumed): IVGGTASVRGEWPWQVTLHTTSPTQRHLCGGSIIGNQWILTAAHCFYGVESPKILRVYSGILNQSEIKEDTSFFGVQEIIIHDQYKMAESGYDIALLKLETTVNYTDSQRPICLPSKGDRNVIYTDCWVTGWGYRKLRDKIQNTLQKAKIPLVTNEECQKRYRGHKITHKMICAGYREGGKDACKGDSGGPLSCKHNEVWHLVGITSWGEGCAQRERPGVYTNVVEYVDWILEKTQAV
Factor XI, sequence (P03951 19-387 limits assumed): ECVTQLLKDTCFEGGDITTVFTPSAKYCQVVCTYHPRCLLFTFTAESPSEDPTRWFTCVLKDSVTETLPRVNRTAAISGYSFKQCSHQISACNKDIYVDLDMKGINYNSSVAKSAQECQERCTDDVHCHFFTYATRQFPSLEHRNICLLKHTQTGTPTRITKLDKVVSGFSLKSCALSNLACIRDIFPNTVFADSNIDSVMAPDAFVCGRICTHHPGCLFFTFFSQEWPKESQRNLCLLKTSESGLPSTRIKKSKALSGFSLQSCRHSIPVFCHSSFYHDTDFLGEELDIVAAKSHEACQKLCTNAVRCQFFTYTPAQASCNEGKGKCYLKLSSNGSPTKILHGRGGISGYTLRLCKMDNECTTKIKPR
Plasmin, sequence (P06868 584-812 limits assumed): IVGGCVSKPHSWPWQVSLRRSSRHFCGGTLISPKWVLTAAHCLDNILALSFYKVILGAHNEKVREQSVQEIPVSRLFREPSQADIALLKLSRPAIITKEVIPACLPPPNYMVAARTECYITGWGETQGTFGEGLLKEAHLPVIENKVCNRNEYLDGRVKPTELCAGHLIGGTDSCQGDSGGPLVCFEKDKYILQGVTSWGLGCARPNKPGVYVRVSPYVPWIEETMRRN
Plasmin, sequence (P06868 104-583 limits assumed): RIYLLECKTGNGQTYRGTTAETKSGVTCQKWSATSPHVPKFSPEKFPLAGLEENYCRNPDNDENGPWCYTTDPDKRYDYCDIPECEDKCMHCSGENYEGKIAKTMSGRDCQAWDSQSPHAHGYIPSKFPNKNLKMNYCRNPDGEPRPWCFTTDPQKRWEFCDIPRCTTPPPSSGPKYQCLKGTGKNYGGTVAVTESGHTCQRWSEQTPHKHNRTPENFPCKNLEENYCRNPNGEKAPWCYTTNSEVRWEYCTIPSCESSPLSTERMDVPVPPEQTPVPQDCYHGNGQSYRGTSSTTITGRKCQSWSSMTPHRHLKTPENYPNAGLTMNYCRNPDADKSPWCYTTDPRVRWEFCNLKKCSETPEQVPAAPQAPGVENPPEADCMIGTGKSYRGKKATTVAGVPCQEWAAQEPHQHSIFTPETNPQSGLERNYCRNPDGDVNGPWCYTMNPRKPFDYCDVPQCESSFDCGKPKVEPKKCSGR
Tissue Plasminogen Activator (t-PA), sequence (P00750 36-562): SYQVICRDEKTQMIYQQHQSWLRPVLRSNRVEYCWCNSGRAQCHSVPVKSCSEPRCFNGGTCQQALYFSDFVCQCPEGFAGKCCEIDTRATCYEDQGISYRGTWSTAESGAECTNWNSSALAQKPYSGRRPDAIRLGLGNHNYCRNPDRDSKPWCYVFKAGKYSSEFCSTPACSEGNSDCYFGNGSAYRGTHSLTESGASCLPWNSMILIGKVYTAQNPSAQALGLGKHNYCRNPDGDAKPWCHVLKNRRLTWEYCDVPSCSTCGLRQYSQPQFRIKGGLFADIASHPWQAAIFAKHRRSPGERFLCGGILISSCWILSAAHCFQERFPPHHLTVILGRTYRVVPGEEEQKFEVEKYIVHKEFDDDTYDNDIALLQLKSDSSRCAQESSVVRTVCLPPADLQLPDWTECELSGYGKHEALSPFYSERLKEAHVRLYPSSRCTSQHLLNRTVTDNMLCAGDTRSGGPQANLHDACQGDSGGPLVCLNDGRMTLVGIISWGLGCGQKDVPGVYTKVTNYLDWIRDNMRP
factor X, sequence (P00743 234-492 limits assumed): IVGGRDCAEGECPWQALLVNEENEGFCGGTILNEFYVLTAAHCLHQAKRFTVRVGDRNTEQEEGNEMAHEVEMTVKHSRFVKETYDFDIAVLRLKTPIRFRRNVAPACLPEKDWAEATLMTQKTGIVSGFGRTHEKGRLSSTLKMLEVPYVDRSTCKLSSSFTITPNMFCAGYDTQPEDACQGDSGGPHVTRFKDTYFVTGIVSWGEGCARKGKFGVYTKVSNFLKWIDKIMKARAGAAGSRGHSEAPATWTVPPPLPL
factor X, sequence (P00743 41-180 limits assumed): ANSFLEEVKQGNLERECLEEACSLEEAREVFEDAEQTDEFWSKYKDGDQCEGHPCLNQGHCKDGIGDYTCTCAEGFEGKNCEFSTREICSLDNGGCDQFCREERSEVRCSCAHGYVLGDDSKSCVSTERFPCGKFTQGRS
Description for thioredoxin: A slight modification of the method of Holmgren was used. on a 96 well microtiter plate solutions of thioredoxin in 0.1 M potassium phosphate pH 6.5 buffer were preactivated for 15 minutes in the presence of 0.33 mM dithiothreitol (DTT) and 2 mM EDTA.
As a positive control, the structurally related natural products parthenolide and santonin were tested in the above assay in place of the inhibitors.

For `N=C(N)NCCC[C@H](NC(=O)[C@@H]1CCN2CC[C@@](N)(Cc3ccccc3)C(=O)N12)C(=O)c1nc2ccccc2s1` [20^b], the Ki (in general, the equilibrium dissociation constant of an inhibitor or competing ligand from its target) on Factor XI was 27 nM; at factor VII, 270 nM; in [1] (read-out: Ki tPA (tissue Plasminogen Activator)) it was 495 nM; at urokinase, 600 nM; at Plasmin, 415 nM.
As to `CC1=C2[C@H]3OC(=O)[C@@H](C)[C@@H]3CC[C@@]2(C)C=CC1=O` [Santonin, reference compound], the “thioredoxin-induced turbidity of insulin at 650 nM” value in the series with thioredoxin is reported as “did not block thioredoxin-induced turbidity of insulin”.
Turning to `N=C(N)NCCC[C@H](NC(=O)[C@@H]1CCN2CC[C@@](N)(Cc3ccccc3)C(=O)N12)C(=O)CCl` [Structure 13b], the PT was 13 s with control plasma (Concentration 1 pM); 17 s in the series on control plasma (Concentration 10 pM); 18 s in the series with control plasma (Concentration 50 pM); 23 s in the series with control plasma (Concentration 100 pM); 24 s in the series with control plasma (Concentration 200 pM); 27 s in the series on control plasma (Concentration 500 pM). Besides, the PT came to 30 s with control plasma (Concentration 1 nM); 31 s in the series on control plasma (Concentration 10 nM); 31 s in the series on control plasma (Concentration 30 nM); 30 s in the series on control plasma (Concentration 50 nM); 33 s in the series with control plasma (Concentration 80 nM).
For `N=C(N)NCCC[C@H](NC(=O)[C@@H]1CCN2CC[C@@](N)(Cc3ccccc3)C(=O)N12)C(=O)c1nc2ccccc2s1` [Structure 20b], the Ki turned out to be 27 nM at Factor XI; 966 nM at factor X; 270 nM at factor VII; 495 nM in [1] (read-out: Ki t-PA); 600 nM at urokinase; 415 nM on Plasmin. Also, the half-life in [2] (male, Sprague Dawley, plasma, 4 mg/kg IV) is 450 min; in [2] (male, Sprague Dawley, plasma, 10 mg/kg PO), 270 min. Also, the bioavailability (in general, the share of a dose that reaches the circulation, judged against a reference dose that is usually intravenous) in series [2] (male, Sprague Dawley, plasma, 10 mg/kg PO vs 4 mg/kg IV, read-out: bioavailability of orally administered compound) was approximately 27%. In addition, in series [2] (4 mg/kg IV and 10 mg/kg PO), the “Efficacy parameters aPTT and TT (FIGS. 4A and 4B)” value is “in vivo efficacy”.
In the case of `N=C(N)NCCC[C@H](NC(=O)[C@@H]1CC[C@@H]2CC[C@](N)(Cc3ccccc3)C(=O)N21)C(=O)c1nc2ccccc2s1` [Structure 29a], the Ki at Factor XI turned out to be 391 nM; on trypsin, 0.54 nM; on thrombin [3] it was 10.4 nM; at factor X, 4600 nM; at factor VII, 1800 nM.
Take `O=C(CCl)c1cccc2c1C(=O)N(c1ccccc1)C2=O` [Structure 65]: in series [4], the IC50 (as a rule, the concentration needed to halve the response being measured) was determined as 9.6 ± 0.1 µM.
On the same count and under the same terms, in the case of `O=C(CCl)C1CCCn2c(=O)n(-c3ccccc3)c(=O)n21` (stereo not shown) [Structure 68] it was 14.2 ± 0.8 µM.
On the same count and under the same terms, the result for `CC1C=CC(C=O)n2c(=O)n(-c3ccccc3)c(=O)n21` (stereo not shown) [Structure 69] reads 32.4 ± 1.7 µM; that for `COC(=O)C#CC(O)c1cccc2c1C(=O)N(c1ccccc1)C2=O` (stereo not shown) [Structure 71], 4.9 ± 0.18 µM.
In the case of `CC1=CC(C(=O)NC(CCCCN)C(=O)C(=O)NCCc2ccc(C(N)=O)cc2)N2C(=O)C(Cc3ccccc3)(Cc3ccccc3)C(=O)N2C1` (stereo not shown) [Structure 187], the Ki on thrombin [5] was less than 10 nM.
Same read-out and setting: the result for `CC1=CC(C(=O)NC(CCCCN)C(=O)C(=O)NCCc2ccc(C(N)=O)cc2)N2C(=O)C(CC(C)C)(CC(C)C)C(=O)N2C1` (stereo not shown) [Structure 188] reads less than 10 nM.
On the same count and under the same terms, the result for `CC1=CC(C(=O)NC(CCCCN)C(=O)C(=O)NCc2ccc(C(N)=O)cc2)N2C(=O)C(N)(Cc3ccccc3)C(=O)N2C1` (stereo not shown) [Structure 189] reads less than 10 nM; that for `CC1=CC(C(=O)NC(CCCNC(=N)N)C(=O)c2nc(C(N)=O)cs2)n2c(=O)n(CC(c3ccccc3)c3ccccc3)c(=O)n2C1` (stereo not shown) [Structure 198], less than 10 nM.
The same measure, in the same setting: the result for `CC1=CC(C(=O)NC(CCCNC(=N)N)C(=O)c2nc(C(N)=O)c[nH]2)n2c(=O)n(CC(c3ccccc3)c3ccccc3)c(=O)n2C1` (stereo not shown) [Structure 201] reads less than 10 nM; that for `CC1=CC(C(=O)NC(CCCNC(=N)N)C(=O)c2nc3ccccc3s2)n2c(=O)n(Cc3ccccc3)c(=O)n2C1` (stereo not shown) [Structure 211], less than 10 nM; that for `CC1=CC(C(=O)NC(CCCNC(=N)N)C(=O)c2nc3ccccc3s2)n2c(=O)n(CC(c3ccccc3)c3ccccc3)c(=O)n2C1` (stereo not shown) [Structure 215], less than 10 nM.
On to `CC1=CC(C(=O)NCC2CCC(N)CC2)n2c(=O)n(CCS(=O)(=O)c3ccccc3)c(=O)n2C1` (stereo not shown) [Structure 221-5], for which the Ki at thrombin [5] was less than 10 nM.
On the same count and under the same terms, the result for `CC1=CC(C(=O)NCC2CCC(C(=N)N)CC2)n2c(=O)n(CC(c3ccccc3)c3ccccc3)c(=O)n2C1` (stereo not shown) [Structure 221-18] reads less than 10 nM; that for `CC1=CC(C(=O)NC(CCCCN)C(=O)C(=O)NCCc2ccc(C(N)=O)cc2)n2c(=O)n(Cc3cc(F)ccc3F)c(=O)n2C1` (stereo not shown) [Structure 222], less than 10 nM.
On the same count and under the same terms, the result for `CC1=CC(C(=O)NC(CCCCN)C(=O)C(=O)NCc2ccc(C(=O)NCCc3ccccc3)cc2)n2c(=O)n(Cc3cc(F)ccc3F)c(=O)n2C1` (stereo not shown) [Structure 223] reads less than 10 nM.
On the same count and under the same terms, in the case of `CC1=CC(C(=O)NC(CCCNC(=N)N)C(=O)c2nc3ccccc3s2)n2c(=O)n(Cc3ccccc3)c(=O)n2C1` (stereo not shown) [Structure 224] it was less than 10 nM; in that of `CC(C)(C)CC1C=CC(C(=O)NC(CCCCN)C(=O)C(=O)NCCc2ccc(C(N)=O)cc2)n2c(=O)n(Cc3cc(F)ccc3F)c(=O)n21` (stereo not shown) [Structure 225], less than 10 nM.
In the case of `NCCCCC(NC(=O)C1C=C2CCCCC2n2c(=O)n(Cc3cc(F)ccc3F)c(=O)n21)C(=O)C(=O)NCCCc1ccc(C(N)=O)cc1` (stereo not shown) [Structure 226], the Ki on thrombin [5] was less than 10 nM.
Regarding `COC(=O)C#CC(O)C1C=CC(C)n2c(=O)n(-c3ccccc3)c(=O)n21` (stereo not shown) [Structure 231], the “thioredoxin-induced turbidity of insulin at 650 nM” value with thioredoxin is given as “turbidity decreases with increasing concentration”.
Still for that read-out and setting: in the case of `COC(=O)/C=C/C(=O)C1C=CC(C)n2c(=O)n(-c3ccccc3)c(=O)n21` (stereo not shown) [Structure 233] it was “turbidity decreases with increasing concentration”.
